Data set [1] can be described thus: log P by HPLC on reversed-phase column (EEC Directive 79/831 Annex V.A8). In kind it is physicochemical. The settings on record: reversed-phase C18 HPLC column, 55° C. How it is done: The log P values are measured according to EEC Directive 79/831 Annex V.A8 by HPLC (high-performance liquid chromatography) on a reversed-phase column (C 18). Temperature: 55° C. The LC-MS determination in the acidic range is effected at pH 2.7 using 0.1% aqueous formic acid and acetonitrile (contains 0.1% formic acid) as eluents; linear gradient from 10% acetonitrile to 95% acetonitrile. Called log P (HCOOH) in the table. LC-MS determination in the neutral range is effected at pH 7.8 with 0.001 molar aqueous ammonium hydrogencarbonate solution and acetonitrile as eluents; linear gradient from 10% acetonitrile to 95% acetonitrile. Called log P (neutral) in the table. Calibration is carried out using unbranched alkan-2-ones (having 3 to 16 carbon atoms) with known log P values (log P values determined on the basis of the retention times by linear interpolation between two successive alkanones).

For a further data set, the system named is Spodoptera frugiperda. Kind of data set: Spodoptera frugiperda spray test. In kind it is in vivo. The settings on record: foliar, 168 h, caterpillars on maize leaf discs, after 7 days, read-out: efficacy. The method, then:
(§1) To produce a suitable active ingredient preparation, 1 part by weight of active ingredient is dissolved with the stated parts by weight of solvent and made up with water containing an emulsifier concentration of 1000 ppm until the desired concentration is attained. To produce further test concentrations, the preparation is diluted with emulsifier-containing water. Leaf discs of maize (Zea mays) are sprayed with an active ingredient preparation of the desired concentration and, after drying, populated with caterpillars of the armyworm (Spodoptera frugiperda). After 7 days, the efficacy in % is determined. 100% means that all the caterpillars have been killed; 0% means that no caterpillar has been killed.

The next data set concerns Myzus persicae. Description: Myzus persicae spray test. In kind it is in vivo. The settings on record: foliar, Chinese cabbage leaf discs, after 5-6 days, read-out: efficacy. The method, then: as §1, with “Discs” for “Leaf discs”, “Chinese cabbage leaves (Brassica pekinensis) infested by all stages of the green peach aphid (Myzus persicae)” for “maize (Zea mays)”, “concentration.” for “concentration and, after drying, populated with caterpillars of the armyworm (Spodoptera frugiperda).”, “5-6” for “7”, “aphids” for “caterpillars”, “aphids have” for “caterpillar has”

The next data set has as its system Phaedon cochleariae. Description: Phaedon cochleariae spray test. In kind it is in vivo. The settings on record: foliar, 168 h, larvae on Chinese cabbage leaf discs, after 7 days, read-out: efficacy. The method, then:
as §1, with “water. Discs” for “water. Leaf discs”, “of Chinese cabbage leaves (Brassica pekinensis)” for “of maize (Zea mays)”, “with larvae” for “with caterpillars”, “the mustard beetle (Phaedon cochleariae).” for “the armyworm (Spodoptera frugiperda).”, “the beetle larvae” for “the caterpillars”, “no beetle larvae have” for “no caterpillar has”

Where [2] appears, read: pH 7.8, aqueous ammonium hydrogencarbonate/acetonitrile, read-out: log P (neutral).
Setting [3] is: pH 2.7, 0.1% aqueous formic acid/acetonitrile, read-out: log P (acidic).

35 molecules from patent US10550116B2, “Fused bicyclic heterocycle derivatives as pesticides” (BAYER CROPSCIENCE AKTIENGESELLSCHAFT, priority 2015, dated 2020) can be followed below.

Read-outs that look alike come from different tables or passages of the source.

Regarding `CCSc1cc2ccccc2nc1C(C)=O` [1-[3-(Ethylsulphanyl)quinolin-2-yl]ethanone], the chromatographic logP in data set [1] (setting [2]) turned out to be 3.31.
As to `CCSc1cc2ccccc2nc1C(=O)CBr` [2-Bromo-1-[3-(ethylsulphanyl)quinolin-2-yl]ethanone], the chromatographic logP in data set [1] (setting [3]) is 3.95.
For the molecule `CCSc1ccc2nc(-c3nc4cc(C(F)(F)F)ncc4n3C)c(SCC)cc2c1` [3,6-bis(ethylsulphanyl)-2-[3-methyl-6-(trifluoromethyl)imidazo[4,5-c]pyridin-2-yl]quinoline], the chromatographic logP in data set [1] (setting [2]) is 4.35.
Regarding `CCSc1cc2ccccc2nc1C(=O)N(C)OC` [3-(Ethylsulphanyl)-N-methoxy-N-methylquinoline-2-carboxamide], the chromatographic logP in data set [1] (setting [2]) was determined as 2.17.
On the same count and under the same terms, the value for `CCSc1cc2ccccc2nc1C(=O)O` [3-(Ethylsulphanyl)quinoline-2-carboxylic acid] was 0.48; that for `CCSc1cc2cc(Cl)ccc2nc1-c1nc2cc(C(F)(F)F)ncc2n1C` [6-Chloro-3-ethylsulphanyl-2-[3-methyl-6-(trifluoromethyl)imidazo[4,5-c]pyridin-2-yl]quinoline] was 3.99.
Take `CCSc1cc2ccccc2nc1-c1nc2cc(C(F)(F)F)ncc2n1C` [Example I-2, 3-Ethylsulphanyl-2-[3-methyl-6-(trifluoromethyl)imidazo[4,5-c]pyridin-2-yl]quinoline]: the pest or weed control at 500 g/ha in the data set on Spodoptera frugiperda is 100%. In addition, in data set [1] (setting [2]), the chromatographic logP turned out to be 3.3. Further, in the data set on Myzus persicae, the pest or weed control at 100 g/ha came to 100%.
With `CCS(=O)(=O)c1nc2ccccc2nc1-c1nc2cc(C(F)(F)F)ncc2n1C` [Example I-3, 2-Ethylsulphonyl-3-[3-methyl-6-(trifluoromethyl)imidazo[4,5-c]pyridin-2-yl]quinoxaline], the chromatographic logP in data set [1] (setting [2]) was 2.45.
As for `CCS(=O)(=O)c1cc2ccccc2nc1-c1nc2cc(C(F)(F)F)cnc2n1C` [Example I-5], the pest or weed control at 500 g/ha in the data set with Phaedon cochleariae was 100%; in the data set with Spodoptera frugiperda, 100%; with Myzus persicae, 70%.
In the case of `CCS(=O)(=O)c1cc2cc(Cl)ccc2nc1-c1nc2cc(C(F)(F)F)ncc2n1C` [Example I-7], the values for the pest or weed control at 500 g/ha in the data set on Phaedon cochleariae, in the data set with Spodoptera frugiperda and in the data set with Myzus persicae were 100%, 100% and 90%, respectively.
For `CCS(=O)(=O)c1cc2ccccc2nc1-c1nc2cc(C(F)(F)C(F)(F)F)ncc2n1C` [Example I-10], the pest or weed control at 500 g/ha was found to be 100% in the data set with Phaedon cochleariae, 100% in the data set with Spodoptera frugiperda and 90% with Myzus persicae.
Take `CCS(=O)(=O)c1cc2ccccc2nc1-c1nc2cc(C(F)(F)F)ccc2n1C` [Example I-12]: the pest or weed control at 500 g/ha amounted to 100% in the data set on Phaedon cochleariae, 100% in the data set on Spodoptera frugiperda and 90% in the data set with Myzus persicae.
On to `CCS(=O)(=O)c1cc2ccccc2nc1-c1nc2cc3c(cc2[nH]1)OC(F)(F)O3` [Example I-15, 6-(3-Ethylsulphonyl-2-quinolyl)-2,2-difluoro-5H-[1,3]dioxolo[4,5-f]benzimidazole], for which the pest or weed control at 500 g/ha in the data set with Phaedon cochleariae and in the data set with Spodoptera frugiperda was 100% throughout. Moreover, the chromatographic logP in data set [1] (setting [2]) came out at 3.37.
As to `CCS(=O)(=O)c1cc2ccccc2nc1-c1nc2cc(C(F)(F)F)ccc2o1` [Example I-17], the figures for the pest or weed control at 500 g/ha in the data set on Phaedon cochleariae, with Spodoptera frugiperda and with Myzus persicae were 100%, 100% and 90%, respectively.
For `CCS(=O)(=O)c1cc2ccccc2nc1-c1nc2cc(C(F)(F)C(F)(F)F)cnc2n1C` [Example I-20], the pest or weed control at 100 g/ha with Phaedon cochleariae (100 g/ha), with Spodoptera frugiperda (100 g/ha) and with Myzus persicae was 100% in each case.
Take `CCS(=O)(=O)c1cc2ccccc2nc1-c1nc2cc(S(=O)(=O)C(F)(F)F)ccc2n1C` [Example I-24, 3-Ethylsulphonyl-2-[1-methyl-5-(trifluoromethylsulphonyl)benzimidazol-2-yl]quinoline]: the chromatographic logP in data set [1] (setting [2]) is 3.42.
For `CCSc1cc2ccccc2nc1-c1nc2cc(C(F)(F)F)cnc2n1C` [Example I-25], the pest or weed control at 500 g/ha in the data set on Phaedon cochleariae and with Spodoptera frugiperda was 100% in each case.
With `CCSc1cc2ccccc2nc1-c1nc2cc(C(F)(F)F)cnc2o1` [Example I-27], the chromatographic logP in data set [1] (setting [2]) was determined as 4.36.
The same measure, in the same setting: the value for `CC[S+]([O-])c1cc2ccccc2nc1-c1nc2cc(C(F)(F)F)cnc2o1` (centres unmarked) [Example I-28] was 2.98.
As to `CC[S+]([O-])c1cc2ccccc2nc1-c1nc2cc(SC(F)(F)F)ccc2o1` (centres unmarked) [Example I-30], the pest or weed control at 500 g/ha in the data set on Phaedon cochleariae came to 83%; in the data set on Spodoptera frugiperda, 100%; in the data set on Myzus persicae, 70%.
In the case of `CCSc1cc2ccccc2nc1-c1nc2cc3c(cc2[nH]1)OC(F)(F)O3` [Example I-31, 6-(3-Ethylsulphanyl-2-quinolyl)-2,2-difluoro-5H-[1,3]dioxolo[4,5-f]benzimidazole], the chromatographic logP in data set [1] (setting [2]) was determined as 4.26.
In the case of `CCSc1cc2ccccc2nc1-c1nc2cc(C(F)(F)C(F)(F)F)ncc2n1C` [Example I-35], the pest or weed control at 500 g/ha with Phaedon cochleariae worked out at 83%; with Spodoptera frugiperda, 100%.
For the molecule `CCS(=O)(=O)c1cnc2nc(-c3nc4cc(C(F)(F)F)ncc4n3C)c(S(=O)(=O)CC)cc2c1` [Example I-41, 3,6-Bis(ethylsulphonyl)-2-[3-methyl-6-(trifluoromethyl)-3H-imidazo[4,5-c]pyridin-2-yl]-1,8-naphthyridine], the chromatographic logP in data set [1] (setting [2]) came out at 2.21. The pest or weed control at 500 g/ha with Myzus persicae was found to be 90%.
For `CCSc1cc2ccccc2nc1-c1cn2cnc(C(F)(F)F)cc2n1` [Example I-46, 3-(Ethylsulphanyl)-2-[7-(trifluoromethyl)imidazo[1,2-c]pyrimidin-2-yl]quinoline], the chromatographic logP in data set [1] (setting [2]) was found to be 3.24.
On the same count and under the same terms, the figure for `Cn1c(-c2nc3ccccc3cc2Cl)nc2cc(C(F)(F)F)ncc21` [Example V-1, 3-Chloro-2-[3-methyl-6-(trifluoromethyl)imidazo[4,5-c]pyridin-2-yl]quinoline] is 2.89; for `Cn1c(-c2nc3ccccc3nc2Cl)nc2cc(C(F)(F)F)ncc21` [Example V-2, 2-Chloro-3-[3-methyl-6-(trifluoromethyl)imidazo[4,5-c]pyridin-2-yl]quinoxaline] it is 2.84.
Turning to `Cn1c(-c2nc3ncc(Cl)cc3cc2Cl)nc2cc(C(F)(F)F)ncc21` [Example V-3, 3,6-Dichloro-2-[3-methyl-6-(trifluoromethyl)-3H-imidazo[4,5-c]pyridin-2-yl]-1,8-naphthyridine], the chromatographic logP in data set [1] (setting [2]) turned out to be 2.44.
The same measure, in the same setting: the value for `Cn1c(-c2nc3ccc(Cl)cc3cc2Cl)nc2cc(C(F)(F)F)ncc21` [Example V-4, 3,6-Dichloro-2-[3-methyl-6-(trifluoromethyl)imidazo[4,5-c]pyridin-2-yl]quinoline] was 3.53.
Regarding `O=C(O)c1nc2ncc(Cl)cc2cc1Cl` [III-1, 3,6-Dichloro-1,8-naphthyridine-2-carboxylic acid], in data set [1] (setting [3]), the chromatographic logP was 0.7.
In the case of `CCSc1cc2ccccc2nc1C(=O)Nc1cc(C(F)(F)F)cnc1Cl` [IV-1], the chromatographic logP in data set [1] (setting [2]) is 5.71.
Still for that read-out and setting: the value for `COC(=O)c1ccc2cccnc2n1` [XXII-1, Methyl 1,8-naphthyridine-2-carboxylate] was 0.77; that for `COC(=O)c1ccc2ncccc2n1` [XXII-2, Methyl 1,5-naphthyridine-2-carboxylate] was 0.92.
For the molecule `O=C(O)c1ccc2cccnc2n1` [XXX-1, 1,8-Naphthyridine-2-carboxylic acid], in data set [1] (setting [3]), the chromatographic logP is -0.12.
As to `COC(=O)c1nc2ncc(Cl)cc2cc1Cl` [XXXI-1, Methyl 3,6-dichloro-1,8-naphthyridine-2-carboxylate], the chromatographic logP in data set [1] (setting [2]) was 1.93.
In the case of `COC(=O)c1nc2ccc(Cl)nc2cc1Cl` [XXXI-2, Methyl 3,6-dichloro-1,5-naphthyridine-2-carboxylate], the chromatographic logP in data set [1] (setting [2]) amounted to 2.46.
